# In patent US20080113344A1, “Methods and Compositions for the Response Prediction of Malignant Neoplasia to Treatment” (priority 2003, published 2008):
# Tested on: breast cancer
# Assay: Retrospective clinical study of adjuvant tamoxifen treatment of breast cancer
# Format: in vivo, human
# Details: overexpression of PPARBP
# From the text: In particular, elevated levels of the PPARBP gene and protein and the integrity of the telomeric hormone receptor region of the 17q21 ARCHEON, bearing THRA, NR1D1 and RARA, or its related regions on the other ARCHEONs are of importance for these therapeutic regimens. […] Overexpression of PPARBP enables activity of estrogen and progesteron receptors irrespective of a bound ligand. Therefore, the deregulation of the PPARBP results in the activity of these hormone receptors in the absence of the hormones and even in the presence of anti-hormones and thereby circumvents the anti tumor effect of anti hormonal strategies resulting in resistance of PPARBP overexpressing cells. In addition overexpression of hormone receptors other than estrogen receptor in tumor cells affects activity of estrogen or the respective anti-hormones by competition for dimerization partners, such as RXR, or transcriptional activator or repressor genes, such as CBP or NCOR. With regard to tamoxifen treatment this clearly diminishes the effect of the anti-hormone, as the pool of the transcriptional cofactors is reduced for the classical mode of action of tamoxifen within the nucleus.
structure (smiles),measurement,value
CC/C(=C(\c1ccccc1)c1ccc(OCCN(C)C)cc1)c1ccccc1 [tamoxifen],overall survival of patients receiving adjuvant tamoxifen,has impact on the overall survival
